This is an account of results in ChEMBL document CHEMBL5338706, “Discovery of a potent and selective proteolysis targeting chimera (PROTAC) degrader of NSD3 histone methyltransferase” (Eur J Med Chem, 2022).

Activity calls are given as the source filed them. The calls are words filed in the database; no cut-off is given here.

For one assay, the target named is T1, Histone-lysine N-methyltransferase NSD3 (Homo sapiens) (UniProt Q9BZ95).
T1 sequence (whole entry): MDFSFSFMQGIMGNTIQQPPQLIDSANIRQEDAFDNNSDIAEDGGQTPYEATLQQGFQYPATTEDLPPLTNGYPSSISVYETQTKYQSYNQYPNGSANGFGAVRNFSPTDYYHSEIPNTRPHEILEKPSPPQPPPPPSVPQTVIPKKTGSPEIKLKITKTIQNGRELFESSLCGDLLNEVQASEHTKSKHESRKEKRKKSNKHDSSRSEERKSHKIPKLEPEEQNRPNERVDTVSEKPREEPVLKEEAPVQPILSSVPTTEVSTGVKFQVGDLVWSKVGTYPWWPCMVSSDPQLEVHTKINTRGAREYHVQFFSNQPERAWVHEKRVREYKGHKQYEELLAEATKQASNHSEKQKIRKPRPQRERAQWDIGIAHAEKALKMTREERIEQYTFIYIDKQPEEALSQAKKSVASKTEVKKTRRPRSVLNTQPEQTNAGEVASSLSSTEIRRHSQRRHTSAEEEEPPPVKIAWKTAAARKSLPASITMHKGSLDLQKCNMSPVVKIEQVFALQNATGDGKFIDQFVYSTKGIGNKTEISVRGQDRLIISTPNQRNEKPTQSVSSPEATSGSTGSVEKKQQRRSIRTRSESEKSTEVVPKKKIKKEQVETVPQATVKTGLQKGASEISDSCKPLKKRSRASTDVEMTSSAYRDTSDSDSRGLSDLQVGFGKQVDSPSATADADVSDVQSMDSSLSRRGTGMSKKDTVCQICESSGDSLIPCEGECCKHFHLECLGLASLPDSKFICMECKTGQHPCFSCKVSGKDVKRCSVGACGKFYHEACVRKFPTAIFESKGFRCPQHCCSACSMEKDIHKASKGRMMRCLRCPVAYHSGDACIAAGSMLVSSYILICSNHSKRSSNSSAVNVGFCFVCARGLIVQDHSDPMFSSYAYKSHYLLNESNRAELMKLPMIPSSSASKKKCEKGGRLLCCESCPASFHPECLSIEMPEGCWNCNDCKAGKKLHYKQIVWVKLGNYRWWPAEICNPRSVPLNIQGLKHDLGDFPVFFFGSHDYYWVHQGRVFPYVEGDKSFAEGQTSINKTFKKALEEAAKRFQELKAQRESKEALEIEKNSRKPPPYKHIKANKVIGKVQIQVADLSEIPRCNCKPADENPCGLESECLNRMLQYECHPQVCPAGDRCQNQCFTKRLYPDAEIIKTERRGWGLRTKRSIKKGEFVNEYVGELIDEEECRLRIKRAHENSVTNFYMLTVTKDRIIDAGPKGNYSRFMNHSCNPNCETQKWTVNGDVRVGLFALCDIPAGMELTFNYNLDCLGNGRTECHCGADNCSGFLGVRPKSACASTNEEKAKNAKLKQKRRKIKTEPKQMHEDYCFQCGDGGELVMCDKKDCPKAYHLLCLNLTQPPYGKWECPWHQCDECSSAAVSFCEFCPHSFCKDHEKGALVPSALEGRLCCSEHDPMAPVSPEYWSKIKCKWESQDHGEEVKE
Put plainly: Induction of NSD3 degradation in human NCI-H1703 cells at 5 uM incubated for 72 hrs by Western blot analysis. The class given is cell-based.
Settings: not given
On the technique in general: In western blotting, separated proteins are transferred to a membrane and probed.
For the molecule `Cc1cc(CNCCCCCCCCCCNc2cccc3c2C(=O)N(C2CCC(=O)NC2=O)C3=O)cc(C)c1-c1ncn(C)c1-c1ccnc2cc(F)ccc12` (stereo not drawn), the NSD3 degradation stood at 21%.

In the case of `Cc1cc(CNCCCCCCCCCCCCCCCC(=O)N[C@H](C(=O)N2C[C@H](O)C[C@H]2C(=O)N[C@@H](C)c2ccc(-c3scnc3C)cc2)C(C)(C)C)cc(C)c1-c1ncn(C)c1-c1ccnc2cc(F)ccc12`, the NSD3 degradation was determined as 16.4%.

In the case of `Cc1cc(CNCCOCCOCCC(=O)N[C@H](C(=O)N2C[C@H](O)C[C@H]2C(=O)N[C@@H](C)c2ccc(-c3scnc3C)cc2)C(C)(C)C)cc(C)c1-c1ncn(C)c1-c1ccnc2cc(F)ccc12`, the NSD3 degradation was -7.2%.

With `Cc1cc(CNCCCCC(=O)N[C@H](C(=O)N2C[C@H](O)C[C@H]2C(=O)N[C@@H](C)c2ccc(-c3scnc3C)cc2)C(C)(C)C)cc(C)c1-c1ncn(C)c1-c1ccnc2cc(F)ccc12`, the NSD3 degradation was -4.2%.

In the case of `Cc1cc(CNCCN2CCN(CCCC(=O)N[C@H](C(=O)N3C[C@H](O)C[C@H]3C(=O)N[C@@H](C)c3ccc(-c4scnc4C)cc3)C(C)(C)C)CC2)cc(C)c1-c1ncn(C)c1-c1ccnc2cc(F)ccc12`, the NSD3 degradation is 9.1%.

Turning to `Cc1cc(CNCCCCCCC(=O)N[C@H](C(=O)N2C[C@H](O)C[C@H]2C(=O)N[C@@H](C)c2ccc(-c3scnc3C)cc2)C(C)(C)C)cc(C)c1-c1ncn(C)c1-c1ccnc2cc(F)ccc12`, the NSD3 degradation was 6.3%.

Turning to `Cc1cc(CNCCCCCC(=O)N[C@H](C(=O)N2C[C@H](O)C[C@H]2C(=O)N[C@@H](C)c2ccc(-c3scnc3C)cc2)C(C)(C)C)cc(C)c1-c1ncn(C)c1-c1ccnc2cc(F)ccc12`, the NSD3 degradation worked out at 1.6%.

As for `Cc1cc(CNCCCCCN2CCN(CC(=O)N[C@H](C(=O)N3C[C@H](O)C[C@H]3C(=O)N[C@@H](C)c3ccc(-c4scnc4C)cc3)C(C)(C)C)CC2)cc(C)c1-c1ncn(C)c1-c1ccnc2cc(F)ccc12`, the NSD3 degradation was found to be 53.5%.

`Cc1cc(CNCCCCCCCCCC(=O)N[C@H](C(=O)N2C[C@H](O)C[C@H]2C(=O)N[C@@H](C)c2ccc(-c3scnc3C)cc2)C(C)(C)C)cc(C)c1-c1ncn(C)c1-c1ccnc2cc(F)ccc12`: the NSD3 degradation was found to be 1.2%.

Take `Cc1cc(CNCCCN2CCN(CCCC(=O)N[C@H](C(=O)N3C[C@H](O)C[C@H]3C(=O)N[C@@H](C)c3ccc(-c4scnc4C)cc3)C(C)(C)C)CC2)cc(C)c1-c1ncn(C)c1-c1ccnc2cc(F)ccc12`: the NSD3 degradation came to 13.8%.

For `Cc1cc(CNCCOCCOCCOCCOCCC(=O)N[C@H](C(=O)N2C[C@H](O)C[C@H]2C(=O)N[C@@H](C)c2ccc(-c3scnc3C)cc2)C(C)(C)C)cc(C)c1-c1ncn(C)c1-c1ccnc2cc(F)ccc12`, the NSD3 degradation was 7.7%.

Take `Cc1cc(CNCCOCCOCCOCC(=O)N[C@H](C(=O)N2C[C@H](O)C[C@H]2C(=O)N[C@@H](C)c2ccc(-c3scnc3C)cc2)C(C)(C)C)cc(C)c1-c1ncn(C)c1-c1ccnc2cc(F)ccc12`: the NSD3 degradation was 10.7%.

For `Cc1cc(CNCCCCN2CCN(CC(=O)N[C@H](C(=O)N3C[C@H](O)C[C@H]3C(=O)N[C@@H](C)c3ccc(-c4scnc4C)cc3)C(C)(C)C)CC2)cc(C)c1-c1ncn(C)c1-c1ccnc2cc(F)ccc12`, the NSD3 degradation amounted to 11.1%.

As to `Cc1cc(CNCCCCCCCCCCCCCCC(=O)N[C@H](C(=O)N2C[C@H](O)C[C@H]2C(=O)N[C@@H](C)c2ccc(-c3scnc3C)cc2)C(C)(C)C)cc(C)c1-c1ncn(C)c1-c1ccnc2cc(F)ccc12`, the NSD3 degradation was 33.1%.

As for `Cc1cc(CNCCCCCCCCCCCNc2cccc3c2C(=O)N(C2CCC(=O)NC2=O)C3=O)cc(C)c1-c1ncn(C)c1-c1ccnc2cc(F)ccc12` (stereo not drawn), the NSD3 degradation turned out to be 15.6%.

In the case of `Cc1cc(CNCCCCCCCCC(=O)N[C@H](C(=O)N2C[C@H](O)C[C@H]2C(=O)N[C@@H](C)c2ccc(-c3scnc3C)cc2)C(C)(C)C)cc(C)c1-c1ncn(C)c1-c1ccnc2cc(F)ccc12`, the NSD3 degradation stood at 0.7%.

In the case of `Cc1cc(CNCCCCCCCCCCCC(=O)N[C@H](C(=O)N2C[C@H](O)C[C@H]2C(=O)N[C@@H](C)c2ccc(-c3scnc3C)cc2)C(C)(C)C)cc(C)c1-c1ncn(C)c1-c1ccnc2cc(F)ccc12`, the NSD3 degradation came to 1.5%.

Regarding `Cc1cc(CNCCCCCCCCCCCCCC(=O)N[C@H](C(=O)N2C[C@H](O)C[C@H]2C(=O)N[C@@H](C)c2ccc(-c3scnc3C)cc2)C(C)(C)C)cc(C)c1-c1ncn(C)c1-c1ccnc2cc(F)ccc12`, the NSD3 degradation came to 45.2%.

As to `Cc1cc(CNCCOCCOCCOCCC(=O)N[C@H](C(=O)N2C[C@H](O)C[C@H]2C(=O)N[C@@H](C)c2ccc(-c3scnc3C)cc2)C(C)(C)C)cc(C)c1-c1ncn(C)c1-c1ccnc2cc(F)ccc12`, the NSD3 degradation turned out to be 7.4%.

On to `Cc1cc(CNCCCCCCCCCCCCNc2cccc3c2C(=O)N(C2CCC(=O)NC2=O)C3=O)cc(C)c1-c1ncn(C)c1-c1ccnc2cc(F)ccc12` (stereo not drawn), for which the NSD3 degradation was 1.5%.

Consider `Cc1cc(CNCCCCCCCCCCCCC(=O)N[C@H](C(=O)N2C[C@H](O)C[C@H]2C(=O)N[C@@H](C)c2ccc(-c3scnc3C)cc2)C(C)(C)C)cc(C)c1-c1ncn(C)c1-c1ccnc2cc(F)ccc12`, for which the NSD3 degradation was 38%.

Consider `Cc1cc(CNCCCCCCCCCNc2cccc3c2C(=O)N(C2CCC(=O)NC2=O)C3=O)cc(C)c1-c1ncn(C)c1-c1ccnc2cc(F)ccc12` (stereo not drawn), for which the NSD3 degradation was found to be 1.7%.

As to `Cc1cc(CNCCCCCCN2CCN(CC(=O)N[C@H](C(=O)N3C[C@H](O)C[C@H]3C(=O)N[C@@H](C)c3ccc(-c4scnc4C)cc3)C(C)(C)C)CC2)cc(C)c1-c1ncn(C)c1-c1ccnc2cc(F)ccc12`, the NSD3 degradation is 37.6%.

As for `Cc1cc(CNCCCCCCCC(=O)N[C@H](C(=O)N2C[C@H](O)C[C@H]2C(=O)N[C@@H](C)c2ccc(-c3scnc3C)cc2)C(C)(C)C)cc(C)c1-c1ncn(C)c1-c1ccnc2cc(F)ccc12`, the NSD3 degradation was -2.4%.

In the case of `Cc1cc(CNCCCN2CCN(CCC(=O)N[C@H](C(=O)N3C[C@H](O)C[C@H]3C(=O)N[C@@H](C)c3ccc(-c4scnc4C)cc3)C(C)(C)C)CC2)cc(C)c1-c1ncn(C)c1-c1ccnc2cc(F)ccc12`, the NSD3 degradation came out at 25.8%.

The next assay deals with A549. Kind of assay: Antiproliferative activity against human A549 cells at upto 10 uM incubated for 3 days by CCK-8 method. The assay is classed as functional, cell-based. To be noted: time 3.0 day.
As to `Cc1cc(CN)cc(C)c1-c1ncn(C)c1-c1ccnc2cc(F)ccc12`, the outcome was inactive.

The next assay deals with NCI-H1703. Put plainly: Antiproliferative activity against human NCI-H1703 cells at upto 10 uM incubated for 6 days by CCK-8 method. The assay is classed as functional, cell-based. Particulars: time 6.0 day.
Regarding `Cc1cc(CN)cc(C)c1-c1ncn(C)c1-c1ccnc2cc(F)ccc12`, the result was inactive.

The target in a further assay is T1, Histone-lysine N-methyltransferase NSD3 (Homo sapiens). Kind of assay: Induction of NSD3 degradation in human NCI-H1703 cells at upto 9 uM incubated for 72 hrs by Western blot analysis.
Settings: not given
The assay is classed as cell-based.
For `Cc1cc(CN)cc(C)c1-c1ncn(C)c1-c1ccnc2cc(F)ccc12`, the outcome was inactive.
